Source: patent US20030176314A1, “Compounds for the treatment of pain” (priority 2001, published 2003)

The compounds below were run against T1, rat NPFF2 receptor (Rattus norvegicus, UniProt Q9EQD2) (assay: Functional assay (agonist potency, intrinsic activity) at cloned rat NPFF2 receptor). Details: Table 5; percent of maximum response elicited by neuropeptide FF.
T1 construct: The full-length NPFF2 was amplified from rat spinal cord cDNA; expressed in transfected cells; host or cells: not given
T1 sequence (Q9EQD2 whole entry): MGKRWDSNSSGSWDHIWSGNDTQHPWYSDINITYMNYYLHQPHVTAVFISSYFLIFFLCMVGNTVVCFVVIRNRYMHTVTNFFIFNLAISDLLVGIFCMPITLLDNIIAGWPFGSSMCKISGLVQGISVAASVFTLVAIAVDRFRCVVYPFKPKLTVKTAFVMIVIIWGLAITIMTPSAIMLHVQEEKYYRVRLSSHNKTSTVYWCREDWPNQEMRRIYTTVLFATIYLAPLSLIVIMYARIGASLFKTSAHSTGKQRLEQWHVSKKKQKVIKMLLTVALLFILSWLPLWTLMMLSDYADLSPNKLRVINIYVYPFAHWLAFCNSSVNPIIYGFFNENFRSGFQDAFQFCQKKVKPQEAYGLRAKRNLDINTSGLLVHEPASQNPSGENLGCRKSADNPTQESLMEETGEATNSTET
Assay type: cell-based
For `N=C(N)NCCC[C@@H](NS(=O)(=O)c1cccc2ccccc12)C(=O)N[C@@H](Cc1ccccc1)C(N)=O` [Compound 3001B], the “Functional Activity rNPFF2 I.A. %” value was 79%. With “N1-[(1R)-2-Amino-1-benzyl-2-oxoethyl]-(2S)-{[amino(imino)methyl]amino}-2-[2, 6-difluorophenyl)sulfonyl]amino]pentanamide [Compound 1032B]” the “Functional Activity rNPFF2 I.A. %” value was 61%. In the case of “N1-[(1R)-2-Amino-1-benzyl-2-oxoethyl]-(2S)-{[amino(imino)methyl]amino}-2-[2-bromophenyl) sulfonyl]amino}pentanamide [Compound 1031B]”, the “Functional Activity rNPFF2 I.A. %” value is reported as 24%. “N1-[(1S)-2-Amino-1-benzyl-2-oxoethyl]-(2R)-{[amino(imino)methyl]amino}-2-2-bromophenyl) sulfonyl]amino}pentanamide [Compound 1030B]” was tested, and the “Functional Activity rNPFF2 I.A. %” value was 71%.

Same assay, conditions: Table 5; read-out: Functional Activity rNPFF2 EC50
`N=C(N)NCCC[C@@H](NS(=O)(=O)c1cccc2ccccc12)C(=O)N[C@@H](Cc1ccccc1)C(N)=O` [Compound 3001B] gave an EC50 of 378 nM. In the case of “N1-[(1R)-2-Amino-1-benzyl-2-oxoethyl]-(2S)-{[amino(imino)methyl]amino}-2-[2, 6-difluorophenyl)sulfonyl]amino]pentanamide [Compound 1032B]”, the EC50 is reported as 2760 nM. “N1-[(1R)-2-Amino-1-benzyl-2-oxoethyl]-(2S)-{[amino(imino)methyl]amino}-2-[2-bromophenyl) sulfonyl]amino}pentanamide [Compound 1031B]” showed an EC50 of 1570 nM. Work on “N1-[(1S)-2-Amino-1-benzyl-2-oxoethyl]-(2R)-{[amino(imino)methyl]amino}-2-2-bromophenyl) sulfonyl]amino}pentanamide [Compound 1030B]” yielded an EC50 of 1640 nM.

Same assay, conditions: Table 7, agonist potency; read-out: rNPFF2 EC50
Compound `Cc1nc(NC(=N)N)nc2ccc(OCCCCCOc3ccccc3)cc12` [Compound 1005A, N-4-methyl-6-[(5-phenoxypentyl)oxy]-2-quinazolinylguanidine] has an EC50 of 3160 nM. In the case of `CCc1nc(NC(=N)N)nc2ccc(C)cc12` [Compound 1027A], the EC50 is reported as greater than 10000 nM.

Same assay, conditions: Table 7, intrinsic activity
`Cc1nc(NC(=N)N)nc2ccc(OCCCCCOc3ccccc3)cc12` [Compound 1005A, N-4-methyl-6-[(5-phenoxypentyl)oxy]-2-quinazolinylguanidine] was tested, and the “rNPFF2 IA” value was 21% NPFF. In the case of `CCc1nc(NC(=N)N)nc2ccc(C)cc12` [Compound 1027A], the “rNPFF2 IA” value is reported as 31% NPFF.

Same assay, conditions: agonist: IA>15%; antagonist: Ki≦1.2 mM and IA≦15% at the rat cloned NPFF receptors
In the case of `N=C(N)NCCC[C@@H](NS(=O)(=O)c1cccc2ccccc12)C(=O)N[C@@H](Cc1ccccc1)C(N)=O` [Compound 3001B], the “classification as agonist or antagonist at the NPFF2 receptor” value is reported as “agonist”.

The compounds below were run against T2, rat NPFF1 receptor (Rattus norvegicus, UniProt Q9EP86) (assay: Functional assay (agonist potency, intrinsic activity) at cloned rat NPFF1 receptor). Details: Table 5; percent of maximum response elicited by neuropeptide FF.
T2 construct: expressed in transfected cells; host or cells: not given
T2 sequence (Q9EP86 whole entry): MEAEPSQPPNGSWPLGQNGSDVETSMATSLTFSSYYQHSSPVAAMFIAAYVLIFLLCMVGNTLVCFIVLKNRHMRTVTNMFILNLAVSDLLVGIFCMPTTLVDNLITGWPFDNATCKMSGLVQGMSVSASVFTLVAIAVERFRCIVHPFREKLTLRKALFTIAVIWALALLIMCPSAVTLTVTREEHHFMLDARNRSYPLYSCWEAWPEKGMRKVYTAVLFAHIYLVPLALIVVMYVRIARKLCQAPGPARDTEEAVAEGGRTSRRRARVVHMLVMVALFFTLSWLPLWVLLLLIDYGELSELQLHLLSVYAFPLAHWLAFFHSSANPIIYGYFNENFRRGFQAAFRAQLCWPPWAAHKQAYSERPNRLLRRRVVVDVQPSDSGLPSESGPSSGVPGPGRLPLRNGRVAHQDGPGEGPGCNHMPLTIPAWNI
Assay type: cell-based
With `N=C(N)NCCC[C@@H](NS(=O)(=O)c1cccc2ccccc12)C(=O)N[C@@H](Cc1ccccc1)C(N)=O` [Compound 3001B] the “Functional Activity rNPFF1 I.A. %” value was 1%. In the case of “N1-[(1R)-2-Amino-1-benzyl-2-oxoethyl]-(2S)-{[amino(imino)methyl]amino}-2-[2, 6-difluorophenyl)sulfonyl]amino]pentanamide [Compound 1032B]”, the “Functional Activity rNPFF1 I.A. %” value is reported as 47%. In the case of “N1-[(1R)-2-Amino-1-benzyl-2-oxoethyl]-(2S)-{[amino(imino)methyl]amino}-2-[2-bromophenyl) sulfonyl]amino}pentanamide [Compound 1031B]”, the “Functional Activity rNPFF1 I.A. %” value is reported as 32%. With “N1-[(1S)-2-Amino-1-benzyl-2-oxoethyl]-(2R)-{[amino(imino)methyl]amino}-2-2-bromophenyl) sulfonyl]amino}pentanamide [Compound 1030B]” the “Functional Activity rNPFF1 I.A. %” value was 35%.

Same assay, conditions: Table 5; read-out: Functional Activity rNPFF1 EC50
`N=C(N)NCCC[C@@H](NS(=O)(=O)c1cccc2ccccc12)C(=O)N[C@@H](Cc1ccccc1)C(N)=O` [Compound 3001B] gave an EC50 greater than 10000 nM. “N1-[(1R)-2-Amino-1-benzyl-2-oxoethyl]-(2S)-{[amino(imino)methyl]amino}-2-[2, 6-difluorophenyl)sulfonyl]amino]pentanamide [Compound 1032B]” was tested, and the EC50 was 644 nM. “N1-[(1R)-2-Amino-1-benzyl-2-oxoethyl]-(2S)-{[amino(imino)methyl]amino}-2-[2-bromophenyl) sulfonyl]amino}pentanamide [Compound 1031B]” was tested, and the EC50 was 856 nM. For “N1-[(1S)-2-Amino-1-benzyl-2-oxoethyl]-(2R)-{[amino(imino)methyl]amino}-2-2-bromophenyl) sulfonyl]amino}pentanamide [Compound 1030B]”, the EC50 was 655 nM.

Same assay, conditions: Table 7, agonist potency; read-out: rNPFF1 EC50
`Cc1nc(NC(=N)N)nc2ccc(OCCCCCOc3ccccc3)cc12` [Compound 1005A, N-4-methyl-6-[(5-phenoxypentyl)oxy]-2-quinazolinylguanidine] showed an EC50 greater than 10000 nM. Work on `CCc1nc(NC(=N)N)nc2ccc(C)cc12` [Compound 1027A] yielded an EC50 greater than 10000 nM.

Same assay, conditions: Table 7, intrinsic activity
In the case of `Cc1nc(NC(=N)N)nc2ccc(OCCCCCOc3ccccc3)cc12` [Compound 1005A, N-4-methyl-6-[(5-phenoxypentyl)oxy]-2-quinazolinylguanidine], the “rNPFF1 IA” value is reported as “Inactive”. In the case of `CCc1nc(NC(=N)N)nc2ccc(C)cc12` [Compound 1027A], the “rNPFF1 IA” value is reported as “Inactive”.

Same assay, conditions: agonist: IA>15%; antagonist: Ki≦1.2 mM and IA≦15% at the rat cloned NPFF receptors
In the case of `N=C(N)NCCC[C@@H](NS(=O)(=O)c1cccc2ccccc12)C(=O)N[C@@H](Cc1ccccc1)C(N)=O` [Compound 3001B], the “classification as agonist or antagonist at the NPFF1 receptor” value is reported as “antagonist”.

What follows are compounds tested against T2, rat NPFF1 receptor (assay: Competition binding at cloned rat NPFF1 receptor ([125I]1DMeNPFF displacement)). Details: Table 3, recombinant rat NPFF1; read-out: rNPFF1 Ki.
Procedure: Transfected cells from culture flasks are scraped into 5 ml of 20 mM Tris-HCl, 5 mM EDTA, pH 7.5, and lysed by sonication. The cell lysates are centrifuged at 1000 rpm for 5 min. at 4° C., and the supernatant is centrifuged at 30,000×g for 20 min. at 4° C. […] Optimal membrane suspension dilutions, defined as the protein concentration required to bind less than 10% of the added radioligand, are […], unlabeled compounds, and binding buffer to a final volume of 250 μl. […]
(§1) Competition assay: 50 pM radioligand, 10-12 points. Binding reaction mixtures are incubated for 2 hr at 25° C., and the reaction stopped by filtration through a double layer of GF filters treated with 0.1% polyethyleneimine, using a cell harvester. Wash buffer: 50 mM Tris-HCl, 0.1% BSA. Radioactivity may be measured by scintillation counting and data are analyzed by a computerized non-linear regression program. Non-specific binding is defined as the amount of radioactivity remaining after incubation of membrane protein in the presence of 1 μM final concentration […]. Protein concentration may be measured by the Bradford method using Bio-Rad Reagent, with bovine serum albumin as a standard.
`Cc1nc(NC(=N)N)nc2ccc(OCCCCCOc3ccccc3)cc12` [Compound 1005A, N-4-methyl-6-[(5-phenoxypentyl)oxy]-2-quinazolinylguanidine] gave a Ki of 316 nM. `CCc1nc(NC(=N)N)nc2ccc(C)cc12` [Compound 1027A] gave a Ki of 606 nM.

Same assay, conditions: Table 5, D-Arg- or D-Phe-containing compounds; read-out: Ki Values rNPFF1
`N=C(N)NCCC[C@@H](NS(=O)(=O)c1cccc2ccccc12)C(=O)N[C@@H](Cc1ccccc1)C(N)=O` [Compound 3001B] was tested, and the Ki was 46 nM. “N1-[(1R)-2-Amino-1-benzyl-2-oxoethyl]-(2S)-{[amino(imino)methyl]amino}-2-[2, 6-difluorophenyl)sulfonyl]amino]pentanamide [Compound 1032B]” gave a Ki of 1290 nM. In the case of “N1-[(1R)-2-Amino-1-benzyl-2-oxoethyl]-(2S)-{[amino(imino)methyl]amino}-2-[2-bromophenyl) sulfonyl]amino}pentanamide [Compound 1031B]”, the Ki is reported as 2570 nM. Work on “N1-[(1S)-2-Amino-1-benzyl-2-oxoethyl]-(2R)-{[amino(imino)methyl]amino}-2-2-bromophenyl) sulfonyl]amino}pentanamide [Compound 1030B]” yielded a Ki of 251 nM.

What follows are compounds tested against T1, rat NPFF2 receptor (assay: Competition binding at cloned rat NPFF2 receptor ([125I]1DMeNPFF displacement)). Details: Table 3, recombinant rat NPFF2; read-out: rNPFF2 Ki.
Procedure: Transfected cells from culture flasks are scraped into 5 ml of 20 mM Tris-HCl, 5 mM EDTA, pH 7.5, and lysed by sonication. The cell lysates are centrifuged at 1000 rpm for 5 min. at 4° C., and the supernatant is centrifuged at 30,000×g for 20 min. at 4° C. […] Optimal membrane suspension dilutions, defined as the protein concentration required to bind less than 10% of the added radioligand, […], unlabeled compounds, and binding buffer to a final volume of 250 μl. In equilibrium saturation binding assays membrane preparations are incubated in the presence of increasing concentrations of [^3H]-labeled compound.
as §1
Compound `Cc1nc(NC(=N)N)nc2ccc(OCCCCCOc3ccccc3)cc12` [Compound 1005A, N-4-methyl-6-[(5-phenoxypentyl)oxy]-2-quinazolinylguanidine] has a Ki of 2.14 µM. `CCc1nc(NC(=N)N)nc2ccc(C)cc12` [Compound 1027A] was tested, and the Ki was 3.15 µM.

Same assay, conditions: Table 5, D-Arg- or D-Phe-containing compounds; read-out: Ki Values rNPFF2
Work on `N=C(N)NCCC[C@@H](NS(=O)(=O)c1cccc2ccccc12)C(=O)N[C@@H](Cc1ccccc1)C(N)=O` [Compound 3001B] yielded a Ki of 2.86 µM. “N1-[(1R)-2-Amino-1-benzyl-2-oxoethyl]-(2S)-{[amino(imino)methyl]amino}-2-[2, 6-difluorophenyl)sulfonyl]amino]pentanamide [Compound 1032B]” showed a Ki greater than 10 µM. “N1-[(1R)-2-Amino-1-benzyl-2-oxoethyl]-(2S)-{[amino(imino)methyl]amino}-2-[2-bromophenyl) sulfonyl]amino}pentanamide [Compound 1031B]” was tested, and the Ki was 6.03 µM. Compound “N1-[(1S)-2-Amino-1-benzyl-2-oxoethyl]-(2R)-{[amino(imino)methyl]amino}-2-2-bromophenyl) sulfonyl]amino}pentanamide [Compound 1030B]” has a Ki of 6.2 µM.
